Read-outs that look alike come from different tables or passages of the source.
How the values were obtained:
[1] = biological target: T1, CCK (gallbladder) receptor (Cavia porcellus, UniProt Q63931); test: CCK-receptor bioassay, isolated guinea-pig gall-bladder strip preparations, CCK-8 as agonist; format: cell-based, male Dunkin-Hartley guinea-pigs; conditions: negative log10 of equilibrium dissociation constant, guinea-pig gall-bladder strips, CCK-8 agonist, test compound incubated for 60 minutes, 37° C; for Kb: read-out: pKB versus CCK (gallbladder) (converted)
T1 construct: Isolated, strip preparations were prepared from gall-bladders removed from male Dunkin-Hartley guinea-pigs; from tissue; host or cells: guinea-pig gall-bladder strips
T1 sequence (Q63931 1-430): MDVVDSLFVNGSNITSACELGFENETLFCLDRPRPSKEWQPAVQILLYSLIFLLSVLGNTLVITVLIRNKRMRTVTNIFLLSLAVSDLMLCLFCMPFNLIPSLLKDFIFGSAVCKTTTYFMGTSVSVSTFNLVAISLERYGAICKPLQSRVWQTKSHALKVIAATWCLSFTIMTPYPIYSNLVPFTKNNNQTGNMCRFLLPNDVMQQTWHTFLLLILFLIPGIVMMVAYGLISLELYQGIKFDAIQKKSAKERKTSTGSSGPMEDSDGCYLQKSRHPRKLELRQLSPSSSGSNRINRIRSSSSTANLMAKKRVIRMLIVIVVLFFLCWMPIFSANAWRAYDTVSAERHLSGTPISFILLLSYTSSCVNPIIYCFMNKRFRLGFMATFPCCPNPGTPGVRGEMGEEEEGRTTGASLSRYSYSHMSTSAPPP
Procedure: The compounds of the examples were assayed using a CCK-receptor bioassay as follows:
Isolated, strip preparations were prepared from gall-bladders removed from male Dunkin-Hartley guinea-pigs (250-500 g body weight) according to the method of La Morte, W. W., et al., J.P.E.T., 217, (3), 638-644 (1981).
The complete gall-bladder is removed and opened along the longitudinal axis. Strips measuring 3 mm in the longitudinal axis and 1 mm in the transverse axis are cut and then tied with cotton to stainless steel wires. The preparation is connected to a GRASS FTO3 isometric transducer under an initial loading tension of 1 g and is immersed in 20 mls of Krebs solution maintained at 37° C. and gassed with 95% O2 /5% CO2. The Krebs solution is as detailed above in connection with the fundus assay, except that the Ca^2+ concentration is decreased to 0.5 mM. After 30 mins the preparation is washed. Drug addition begins after an initial 90 min stabilisation period. Responses are measured as changes in tension from that immediately prior to any drug addition. Single cumulative agonist concentration-effect curves, using CCK-8 as agonist, are obtained on each preparation in the absence and presence of test compound which has been incubated for 60 minutes. The antagonist activity of the test compound is estimated and expressed as the negative logarithm (base 10) of the equilibrium dissociation constants (pKB) using the modifications of standard competitive analysis described by Black et al., Br. J. Pharmacol.,86,571-579, (1985) and Shankley et al., Br. J. Pharmacol.,94,264-274 (1988).

CCKB receptor = biological target: T2, CCKB receptor (Mus musculus, UniProt P56481); test: CCKB radioligand binding assay in mouse cortical membranes, [125I] CCK-8S (selectivity testing); set-up: species or system male mice; conditions: [125I] CCK-8S 200 pM, 150 min at 21°; for Ki: pH 7.2, non-specific binding L-365,260, read-out: pKi CCKB (converted)
T2 construct: CCKB receptor in mouse cortical membranes; from tissue; host or cells: mouse cerebral cortex membranes (male mice, Charles River)
T2 sequence (P56481 1-453): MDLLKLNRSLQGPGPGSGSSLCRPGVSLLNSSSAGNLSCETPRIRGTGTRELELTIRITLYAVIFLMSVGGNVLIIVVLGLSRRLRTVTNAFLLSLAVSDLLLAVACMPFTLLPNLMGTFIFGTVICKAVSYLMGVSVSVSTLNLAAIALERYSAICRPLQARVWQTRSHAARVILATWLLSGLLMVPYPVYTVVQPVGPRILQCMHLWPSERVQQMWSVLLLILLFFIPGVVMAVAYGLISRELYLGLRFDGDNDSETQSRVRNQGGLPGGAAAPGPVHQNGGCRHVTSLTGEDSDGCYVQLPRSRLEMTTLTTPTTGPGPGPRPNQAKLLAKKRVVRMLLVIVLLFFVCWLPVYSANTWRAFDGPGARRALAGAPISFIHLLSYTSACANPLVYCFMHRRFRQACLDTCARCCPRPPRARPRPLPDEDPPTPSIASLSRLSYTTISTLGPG
Procedure: The compounds were assayed for selectivity with respect to the CCKB receptor in mouse cortical membranes by means of a radioligand binding assay. The procedure was as follows:
The whole brains from male mice (CDI 22-25 g; Charles River) were removed and placed in ice-cold buffer (pH 7.2 at 21°±3° C.) of the following composition (mM); 10 HEPES, 130 NaCl, 4.7 KCl, 5 MgCl2, 1 EDTA and containing 0.25 g. 1^-1 bacitracin.
The cortex was dissected, weighed and homogenised in 40 ml ice-cold buffer using a Teflon-in-glass homogeniser. The homogenate was centrifuged at 39,800 g for 20 min at 4° C., the supernatant discarded and the pellet resuspended by homogenisation in fresh buffer. The homogenate was recentrifuged (39,800 g; 20 min at 4° C.) and the final pellet was resuspended in HEPES buffer to give a tissue concentration of 2 mg ml^-1 (original wet weight).
The membranes (400 μl) were incubated for 150 min at 21°±3° C. in a final volume of 0.5 ml with HEPES buffer containing [^125 I] CCK-8S (0.05 ml; 200 pM NEN 2200Ci.mmol^-1) and competing compound. Total and non-specific binding of [^125 I] CCK-8S were defined using 0.05 ml of buffer and 0.05 ml of 10 mM L-365,260, respectively. The assay was terminated by rapid filtration through pre-soaked Whatman GF/B filters using a Brandell Cell harvester. The filters were washed (3×3 ml) with ice-cold 50 mM Tris-HCl (pH 7.4 at 4° C.) and bound radioactivity determined by counting (1 min.) in a gamma counter.

CCKA = biological target: T3, CCKA (Cavia porcellus, UniProt Q63931); test: CCKA binding assay, pancreas membranes, [125I]-CCK8(S); set-up: species or system male guinea-pigs (Dunkin Hartley)
T3 construct: The pancreatata were removed from male guinea-pigs (200-300 g; Dunkin Hartley); from tissue; host or cells: guinea-pig pancreas membranes
T3 sequence (Q63931 1-430): T1 sequence (Q63931 1-430)
Procedure: The compounds of the examples were also tested in a CCKA binding assay as follows:
The pancreatata were removed from male guinea-pigs (200-300 g; Dunkin Hartley) and placed in ice-cold HEPES buffer (pH 7.2@21°±3°). The pancreatata were homogenised in 40 ml ice-cold HEPES buffer using a polytron (Brinkmann, PT10, setting 10) 4×1 second. The homogenate was centrifuged at 39,800 g for 15 min at 4°. The supernatant was discarded and the pellet re-suspended using a Teflon-in-glass homogeniser in 20 volumes of fresh buffer and re-centrifuged as above. The final pellet was re-suspended using a Teflon-in-glass homogeniser to a tissue concentration of 1 mg ml^31 1 (original wet weight), and filtered through 500 μm pore-size Nytex mesh.
The membranes (400 μl; containing 0.375 μM PD134,308) are incubated for 150 minutes at 21°±3° in a final volume of 0.5 ml with HEPES buffer containing [^125 I]--CCK8 (S) (50 μl; 200 pM) and competing compound. Total and non-specific binding of [^125 I]--CCK8 (S) are defined using 50 μl of buffer and 50 μl of 100 nM L-364,718 respectively. The assay is terminated by rapid filtration through pre-soaked Whatman GF/B filters using a Brandell Cell Harvester. The filters were washed (3×3 ml) with ice-cold 50 mM Tris HCl (pH 7.4 at 4°) and bound radioactivity is determined by counting (1 min) in a gamma counter.

[2] = guinea-pig pancreas membranes, [125I]-CCK8(S) 200 pM, 0.375 μM PD134,308, 150 minutes at 21°, non-specific binding 100 nM L-364,718, read-out: pKi CCKλ (converted)

In the case of `CCCCCN(CCCOC)C(=O)[C@H](CC(=O)O)NS(=O)(=O)c1ccc2ccccc2c1` [Example 8, 2-Naphthalenesulphonyl-L-aspartyl N-(3-methoxypropyl)pentylamide], the “pKB versus CCK (gallbladder)” value [1] is reported as 6.7, the “pKi CCKB” value (CCKB receptor; pH 7.2, non-specific binding L-365,260) is reported as 4.4 and the “pKi CCKλ” value (CCKA; guinea-pig pancreas membranes, [125I]-CCK8(S) 200 pM, 0.375 μM PD134,308, 150 minutes at 21°, non-specific binding 100 nM L-364,718) is reported as 5.6.

With `O=C(O)C[C@H](NS(=O)(=O)c1ccc2ccccc2c1)C(=O)NCC12CC3CC(CC(C3)C1)C2` [Example 10, 2-Naphthalenesulphonyl-L-aspartyl 1-adamantylmethylamide] the Kb [1] was 0.0631 µM, the Ki (CCKB receptor) was 6.31 µM and the Ki (CCKA; [2]) was 0.0501 µM.

`O=C(O)C[C@H](NS(=O)(=O)c1ccc2ccccc2c1)C(=O)NCCC1CCCCC1` [Example 11, 2-Naphthalenesulphonyl-L-aspartyl 2-cyclohexylethylamide] showed a Kb [1] of 0.0794 µM, a Ki (CCKB receptor) of 25.1 µM and a Ki (CCKA; [2]) of 0.158 µM.

With `CC(C)(C)CCNC(=O)[C@H](CC(=O)O)NS(=O)(=O)c1ccc2ccccc2c1` [Example 6, 2-Naphthalenesulphonyl-L-aspartyl (3,3-dimethyl)-butylamide] the Kb [1] was 0.501 µM, the Ki (CCKB receptor) was 25.1 µM and the Ki (CCKA; [2]) was 0.501 µM.

`O=C(O)C[C@H](NS(=O)(=O)c1ccc2ccccc2c1)C(=O)NC1CCCCCCCCCCC1` [Example 16, 2-Naphthalenesulphonyl-L-aspartyl cyclododecylamide] gave a Kb [1] of 0.0794 µM, a Ki (CCKB receptor) of 10 µM and a Ki (CCKA; [2]) of 0.0398 µM.

For `CCCCCN(CCCCC)C(=O)[C@H](CC(=O)O)NS(=O)(=O)c1ccc2ccccc2c1` [Example 1, 2-Naphthalenesulphonyl-L-aspartyl dipentylamide], the Kb [1] was 0.2 µM, the Ki (CCKB receptor) was 7.94 µM and the Ki (CCKA; [2]) was 0.251 µM.

Molecule `CCCCCNC(=O)[C@H](CC(=O)O)NS(=O)(=O)c1ccc2ccccc2c1` [Example 5, 2-Naphthalenesulphonyl-L-aspartyl pentylamide] has a Kb [1] of 0.398 µM, a Ki (CCKB receptor) of 100 µM and a Ki (CCKA; [2]) of 1 µM.

`CCCCCN(CCCCC)C(=O)[C@@H](CC(=O)O)NS(=O)(=O)c1ccc2ccccc2c1` [Example 18, 2-Naphthalenesulphonyl-D-aspartyl dipentylamide] gave a Kb [1] of 0.158 µM, a Ki (CCKB receptor) of 3.16 µM and a Ki (CCKA; [2]) of 0.631 µM.

`CCCCCOC(=O)[C@H](CC(=O)O)NS(=O)(=O)c1ccc2ccccc2c1` [Example 20, 2-Naphthalenesulphonyl-L-aspartyl pentyl ester] showed a Ki (CCKB receptor) of 20 µM and a Ki (CCKA; [2]) of 2 µM.

`O=C(O)C[C@H](NS(=O)(=O)c1ccc2ccccc2c1)C(=O)N1CCC2(CC1)OCCO2` [Example 14, 2-Naphthalenesulphonyl-L-aspartyl 1,4-dioxa-8-azaspiro-[5.4]decylamide] showed a Ki (CCKA) of 10 µM.

`CCCCCCN(C)C(=O)[C@H](CC(=O)O)NS(=O)(=O)c1ccc2ccccc2c1` [Example 7, 2-Naphthalenesulphonyl-L-aspartyl N-(methyl)hexylamide] gave a Kb [1] of 0.316 µM, a Ki (CCKB receptor) of 50.1 µM and a Ki (CCKA; [2]) of 3.16 µM.

With `CCCCCN(CCCCC)C(=O)[C@@H](CCC(=O)O)NS(=O)(=O)c1ccc2ccccc2c1` [Example 2, 2-Naphthalenesulphonyl D-glutamyl dipentylamide] the Kb [1] was 1 µM, the Ki (CCKB receptor) was 3.98 µM and the Ki (CCKA; [2]) was 0.158 µM.

Molecule `CCCCCC(CCCCC)NC(=O)[C@H](CC(=O)O)NS(=O)(=O)c1ccc2ccccc2c1` [Example 9, 2-Naphthalenesulphonyl-L-aspartyl (1-pentyl)hexylamide] has a Kb [1] of 0.2 µM, a Ki (CCKB receptor) of 3.98 µM and a Ki (CCKA; [2]) of 0.398 µM.

Work on `CCCCN(CCCC)C(=O)[C@H](CC(=O)O)NS(=O)(=O)c1ccc2ccccc2c1` [Example 3, 2-Naphthalenesulphonyl-L-aspartyl dibutylamide] yielded a Kb [1] of 0.631 µM, a Ki (CCKB receptor) of 25.1 µM and a Ki (CCKA; [2]) of 1 µM.

Work on `O=C(O)C[C@H](NS(=O)(=O)c1ccc2ccccc2c1)C(=O)N1CCC2(CCCC2)CC1` [Example 13, 2-Naphthalenesulphonyl-L-aspartyl 3-azaspiro[5.4]decylamide] yielded a Kb [1] of 6.31 µM, a Ki (CCKB receptor) of 10 µM and a Ki (CCKA; [2]) of 6.31 µM.

`O=C(O)C[C@H](NS(=O)(=O)c1ccc2ccccc2c1)C(=O)N1CC2CCC(CC2)C1` [Example 15, 2-Naphthalenesulphonyl-L-aspartyl 3-azabicyclo-[3.2.2]nonylamide] showed a Ki (CCKB receptor) of 25.1 µM and a Ki (CCKA; [2]) of 10 µM.

With `O=C(O)C[C@H](NS(=O)(=O)c1ccc2ccccc2c1)C(=O)NCCC12CC3CC(CC(C3)C1)C2` [Example 12, 2-Naphthalenesulphonyl-L-aspartyl 2-(1-adamantyl) ethylamide] the Kb [1] was 0.0501 µM, the Ki (CCKB receptor) was 7.94 µM and the Ki (CCKA; [2]) was 0.126 µM.

For `CCCCC(CC)CN(CC(CC)CCCC)C(=O)[C@H](CC(=O)O)NS(=O)(=O)c1ccc2ccccc2c1` (stereo partly drawn) [Example 17, 2-Naphthalenesulphonyl-L-aspartyl di(2-ethyl)hexylamide], the Ki (CCKB receptor) was 2 µM and the Ki (CCKA; [2]) was 1.26 µM.

Reference: patent US5847125A, “Amino acid derivatives with anticholecystokinin activity” (James Black Foundation Limited, priority 1992, dated 1998)
